Measured values from ChEMBL document CHEMBL3734738, “A structure-activity relationship of non-peptide macrocyclic histone deacetylase inhibitors and their anti-proliferative and anti-inflammatory activities” (Bioorg Med Chem, 2015).
pIC50: −log10 of the molar value.

Legend:
Histone deacetylase 1 = Histone deacetylase 1 (Homo sapiens, UniProt Q13547); test: Inhibition of recombinant HDAC1 (unknown origin) expressed in Escherichia coli BL21(DE3) after 60 mins using trichostatin A by label-free mass spectrometry-based SAMDI assay
Chain of Histone deacetylase 1 (Q13547 whole entry): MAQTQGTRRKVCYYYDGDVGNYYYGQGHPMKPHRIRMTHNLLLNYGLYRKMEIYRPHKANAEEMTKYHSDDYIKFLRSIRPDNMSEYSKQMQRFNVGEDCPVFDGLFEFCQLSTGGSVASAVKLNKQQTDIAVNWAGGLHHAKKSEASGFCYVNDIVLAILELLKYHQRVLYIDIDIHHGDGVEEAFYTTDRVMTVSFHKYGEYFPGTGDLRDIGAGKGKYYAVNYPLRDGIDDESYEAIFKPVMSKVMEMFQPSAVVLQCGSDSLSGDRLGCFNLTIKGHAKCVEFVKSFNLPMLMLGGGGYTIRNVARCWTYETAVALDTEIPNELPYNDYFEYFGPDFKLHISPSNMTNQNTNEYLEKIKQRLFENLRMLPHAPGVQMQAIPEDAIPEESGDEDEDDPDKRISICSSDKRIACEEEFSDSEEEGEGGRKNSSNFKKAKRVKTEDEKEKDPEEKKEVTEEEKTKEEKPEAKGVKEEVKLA

[1] = target: T1, Protein deacetylase HDAC6 (Homo sapiens, UniProt Q9UBN7); test: Inhibition of recombinant HDAC6 (unknown origin) expressed in Escherichia coli BL21(DE3) after 60 mins using trichostatin A by label-free mass spectrometry-based SAMDI assay
T1 sequence (Q9UBN7 whole entry): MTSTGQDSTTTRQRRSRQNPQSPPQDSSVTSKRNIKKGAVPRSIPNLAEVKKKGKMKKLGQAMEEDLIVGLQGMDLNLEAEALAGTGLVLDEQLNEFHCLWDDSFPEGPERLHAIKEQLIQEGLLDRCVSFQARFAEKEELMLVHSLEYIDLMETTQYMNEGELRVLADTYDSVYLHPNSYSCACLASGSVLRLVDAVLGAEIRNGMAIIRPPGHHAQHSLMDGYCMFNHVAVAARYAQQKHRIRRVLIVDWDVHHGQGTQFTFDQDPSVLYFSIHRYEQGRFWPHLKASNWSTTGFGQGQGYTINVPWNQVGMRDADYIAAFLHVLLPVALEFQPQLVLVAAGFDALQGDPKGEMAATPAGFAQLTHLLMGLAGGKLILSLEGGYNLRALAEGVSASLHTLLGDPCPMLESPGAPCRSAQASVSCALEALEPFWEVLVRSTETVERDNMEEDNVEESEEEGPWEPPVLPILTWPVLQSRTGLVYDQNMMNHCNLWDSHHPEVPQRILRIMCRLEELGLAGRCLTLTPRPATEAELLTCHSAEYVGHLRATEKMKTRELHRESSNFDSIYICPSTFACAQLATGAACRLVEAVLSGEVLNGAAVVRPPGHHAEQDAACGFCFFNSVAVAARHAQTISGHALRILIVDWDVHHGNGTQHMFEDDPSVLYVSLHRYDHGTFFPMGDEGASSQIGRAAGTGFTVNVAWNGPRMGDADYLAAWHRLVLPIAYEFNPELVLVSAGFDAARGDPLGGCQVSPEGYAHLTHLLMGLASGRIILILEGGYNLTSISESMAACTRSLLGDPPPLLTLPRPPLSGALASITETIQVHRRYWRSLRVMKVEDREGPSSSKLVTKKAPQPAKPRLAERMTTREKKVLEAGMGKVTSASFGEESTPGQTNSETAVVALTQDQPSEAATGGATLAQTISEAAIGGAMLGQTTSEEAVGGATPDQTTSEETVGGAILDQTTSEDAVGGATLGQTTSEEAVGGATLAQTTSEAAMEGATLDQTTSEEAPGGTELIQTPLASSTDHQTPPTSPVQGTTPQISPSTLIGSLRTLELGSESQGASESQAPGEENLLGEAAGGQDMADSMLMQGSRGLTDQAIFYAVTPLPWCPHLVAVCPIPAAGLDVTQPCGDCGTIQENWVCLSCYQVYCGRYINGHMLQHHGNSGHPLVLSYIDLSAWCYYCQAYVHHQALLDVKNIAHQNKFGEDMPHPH

Histone deacetylase 8 = target: T2, Histone deacetylase 8 (Homo sapiens, UniProt Q9BY41); test: Inhibition of recombinant HDAC8 (unknown origin) expressed in Escherichia coli BL21(DE3) after 60 mins using trichostatin A by label-free mass spectrometry-based SAMDI assay
T2 sequence (Q9BY41 whole entry): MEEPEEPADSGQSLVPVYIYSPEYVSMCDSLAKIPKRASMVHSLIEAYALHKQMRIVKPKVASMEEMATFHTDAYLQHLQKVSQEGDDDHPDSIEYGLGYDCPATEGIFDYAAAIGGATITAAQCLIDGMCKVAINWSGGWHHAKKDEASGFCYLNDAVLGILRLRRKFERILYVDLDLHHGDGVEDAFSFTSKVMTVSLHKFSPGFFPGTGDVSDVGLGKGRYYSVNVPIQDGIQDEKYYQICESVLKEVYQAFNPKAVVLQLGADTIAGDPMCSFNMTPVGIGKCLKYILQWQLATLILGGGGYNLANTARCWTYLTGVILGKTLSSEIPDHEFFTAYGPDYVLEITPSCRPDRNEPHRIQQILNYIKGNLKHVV

Row | SMILES | pIC50 (Histone deacetylase 1) | pIC50 [1] | pIC50 (Histone deacetylase 8)
1 | CC[C@H]1OC(=O)[C@H](C)[C@@H](O[C@@H]2C[C@](C)(OC)[C@H](O)[C@@H](C)O2)[C@H](C)[C@@H](O[C@@H]2O[C@H](C)C[C@H](N(C)C)[C@H]2O)[C@@](C)(O)C[C@@H](C)CN(Cc2ccc(-c3cn(CCCC(=O)NO)nn3)cc2)[C@@H](C)[C@@H](O)[C@]1(C)O | < 5.00 | 6.21 | 5.56
2 | CC[C@H]1OC(=O)[C@@H](C)[C@H](O[C@H]2C[C@@](C)(OC)[C@@H](O)[C@H](C)O2)[C@H](C)[C@H](O[C@H]2O[C@@H](C)C[C@@H](N(C)Cc3ccc(-c4cn(CC(=O)NO)nn4)cc3)[C@@H]2O)[C@@](C)(O)C[C@H](C)CN(C)[C@@H](C)[C@H](O)[C@@]1(C)O | < 5.00 | 5.25 | < 5.00
3 | CC[C@@H]1OC(=O)[C@@H](C)[C@H](O[C@H]2C[C@@](C)(OC)[C@](O)(CN(C)Cc3ccc(-c4cn(CCCCC(=O)NO)nn4)cc3)[C@H](C)O2)[C@H](C)[C@H](O[C@@H]2O[C@H](C)C[C@H](N(C)C)[C@H]2O)[C@@](C)(OC)C[C@H](C)C(=O)[C@@H](C)[C@@H](O)[C@@]1(C)O | 5.43 | 6.57 | 5.74
4 | CC[C@@H]1OC(=O)[C@H](C)[C@@H](O[C@@H]2C[C@](C)(OC)[C@@](O)(CN(C)Cc3ccc(-c4cn(CCCC(=O)NO)nn4)cc3)[C@@H](C)O2)[C@@H](C)[C@@H](O[C@@H]2O[C@H](C)C[C@H](N(C)C)[C@H]2O)[C@](C)(O)C[C@@H](C)CN(C)[C@H](C)[C@@H](O)[C@]1(C)O | < 5.00 | 6.74 | 5.93
5 | CC[C@@H]1OC(=O)[C@H](C)[C@@H](O[C@H]2C[C@@](C)(OC)[C@](O)(CN(C)Cc3ccc(-c4cn(CCC(=O)NO)nn4)cc3)[C@H](C)O2)[C@@H](C)[C@@H](O[C@@H]2O[C@H](C)C[C@H](N(C)C)[C@H]2O)[C@](C)(O)C[C@@H](C)CN(C)[C@H](C)[C@@H](O)[C@]1(C)O | < 5.00 | 5.69 | 5.65
6 | CC[C@@H]1OC(=O)[C@H](C)[C@@H](O[C@@H]2C[C@](C)(OC)[C@H](O)[C@@H](C)O2)[C@@H](C)[C@@H](O[C@@H]2O[C@H](C)C[C@H](N(C)Cc3ccc(-c4cn(CCCCC(=O)NO)nn4)cc3)[C@H]2O)[C@](C)(O)C[C@@H](C)CN(C)[C@H](C)[C@@H](O)[C@]1(C)O | 5.78 | 6.84 | 5.27
7 | CC[C@H]1OC(=O)[C@H](C)C(=O)[C@H](C)[C@@H](O[C@@H]2O[C@H](C)C[C@H](N(C)Cc3ccc(-c4cn(CCCCCC(=O)NO)nn4)cc3)[C@H]2O)[C@@](C)(OC)C[C@@H](C)C2=NCCN3C(=O)O[C@@]1(C)[C@H]3[C@H]2C | 7.14 | 8.05 | 5.69
8 | CC[C@@H]1OC(=O)[C@H](C)[C@@H](O[C@H]2C[C@@](C)(OC)[C@](O)(CN(C)C)[C@H](C)O2)[C@@H](C)[C@@H](O[C@@H]2O[C@H](C)C[C@H](N(C)Cc3ccc(-c4cn(CCCCCC(=O)NO)nn4)cc3)[C@H]2O)[C@](C)(O)C[C@@H](C)CN(C)[C@H](C)[C@@H](O)[C@]1(C)O | 6.80 | 7.83 | 5.96
9 | CC[C@@H]1OC(=O)[C@@H](C)[C@H](O[C@H]2C[C@@](C)(OC)[C@@H](O)[C@H](C)O2)[C@H](C)[C@H](O[C@@H]2O[C@H](C)C[C@H](N(C)Cc3ccc(-c4cn(CC(=O)NO)nn4)cc3)[C@H]2O)[C@@](C)(OC)C[C@H](C)C(=O)[C@@H](C)[C@@H](O)[C@@]1(C)O | < 5.00 | < 5.00 | < 5.00
10 | CC[C@@H]1OC(=O)[C@@H](C)[C@H](O[C@H]2C[C@@](C)(OC)[C@](O)(CN(C)Cc3ccc(-c4cn(CCC(=O)NO)nn4)cc3)[C@H](C)O2)[C@H](C)[C@H](O[C@@H]2O[C@H](C)C[C@H](N(C)C)[C@H]2O)[C@@](C)(OC)C[C@H](C)C(=O)[C@@H](C)[C@@H](O)[C@@]1(C)O | < 5.00 | 5.45 | 4.99
11 | CC[C@@H]1OC(=O)[C@@H](C)[C@H](O[C@H]2C[C@@](C)(OC)[C@](O)(CN(C)Cc3ccc(-c4cn(CC(=O)NO)nn4)cc3)[C@H](C)O2)[C@H](C)[C@H](O[C@@H]2O[C@H](C)C[C@H](N(C)C)[C@H]2O)[C@@](C)(OC)C[C@H](C)C(=O)[C@@H](C)[C@@H](O)[C@@]1(C)O | < 5.00 | 5.27 | 5.15
12 | CC[C@@H]1OC(=O)[C@H](C)[C@@H](O[C@@H]2C[C@](C)(OC)[C@H](O)[C@@H](C)O2)[C@@H](C)[C@@H](O[C@@H]2O[C@H](C)C[C@H](N(C)Cc3cccc(-c4cn(CCCCCC(=O)NO)nn4)c3)[C@H]2O)[C@](C)(O)C[C@@H](C)CN(C)[C@H](C)[C@@H](O)[C@]1(C)O | 6.96 | 7.36 | 6.22
13 | CC[C@H]1OC(=O)[C@H](C)C(=O)[C@H](C)[C@@H](O[C@@H]2O[C@H](C)C[C@H](N(C)Cc3ccc(-c4cn(CCC(=O)NO)nn4)cc3)[C@H]2O)[C@@](C)(OC)C[C@@H](C)C2=NCCN3C(=O)O[C@@]1(C)[C@H]3[C@H]2C | < 5.00 | 5.76 | < 5.00
14 | CC[C@H]1OC(=O)[C@@H](C)[C@H](O[C@H]2C[C@@](C)(OC)[C@](O)(CN(C)Cc3ccc(-c4cn(CCCCC(=O)NO)nn4)cc3)[C@H](C)O2)[C@H](C)[C@H](O[C@H]2O[C@@H](C)C[C@@H](N(C)C)[C@@H]2O)[C@@](C)(O)C[C@H](C)CN(C)[C@@H](C)[C@H](O)[C@@]1(C)O | 6.27 | 7.02 | 6.15
15 | CC[C@H]1OC(=O)[C@H](C)C(=O)[C@H](C)[C@@H](O[C@@H]2O[C@H](C)C[C@H](N(C)Cc3ccc(-c4cn(CCCCC(=O)NO)nn4)cc3)[C@H]2O)[C@@](C)(OC)C[C@@H](C)C2=NCCN3C(=O)O[C@@]1(C)[C@H]3[C@H]2C | 6.57 | 7.11 | 5.49
16 | CC[C@H]1OC(=O)[C@H](C)C(=O)[C@H](C)[C@@H](O[C@@H]2O[C@H](C)C[C@H](N(C)Cc3ccccc3-c3cn(CCCCCC(=O)NO)nn3)[C@H]2O)[C@@](C)(OC)C[C@@H](C)C2=NCCN3C(=O)O[C@@]1(C)[C@H]3[C@H]2C | < 5.00 | 6.61 | 5.92
17 | CC[C@H]1OC(=O)[C@H](C)[C@@H](O[C@@H]2C[C@](C)(OC)[C@H](O)[C@@H](C)O2)[C@H](C)[C@@H](O[C@@H]2O[C@H](C)C[C@H](N(C)C)[C@H]2O)[C@@](C)(O)C[C@@H](C)CN(Cc2ccc(-c3cn(CC(=O)NO)nn3)cc2)[C@@H](C)[C@@H](O)[C@]1(C)O | < 5.00 | < 5.00 | < 5.00
18 | CC[C@@H]1OC(=O)[C@@H](C)[C@H](O[C@H]2C[C@@](C)(OC)[C@@H](O)[C@H](C)O2)[C@H](C)[C@H](O[C@@H]2O[C@H](C)C[C@H](N(C)Cc3ccc(-c4cn(CCC(=O)NO)nn4)cc3)[C@H]2O)[C@@](C)(OC)C[C@H](C)C(=O)[C@@H](C)[C@@H](O)[C@@]1(C)O | < 5.00 | 6.04 | 5.61
19 | CC[C@H]1OC(=O)[C@H](C)[C@@H](O[C@@H]2C[C@](C)(OC)[C@H](O)[C@@H](C)O2)[C@H](C)[C@@H](O[C@@H]2O[C@H](C)C[C@H](N(C)C)[C@H]2O)[C@@](C)(O)C[C@@H](C)CN(Cc2ccc(-c3cn(CCC(=O)NO)nn3)cc2)[C@@H](C)[C@@H](O)[C@]1(C)O | < 5.00 | 5.91 | < 5.00
